# Data as given in US20240148671A1, “METHODS FOR IMPROVING POULTRY HEALTH” (CORNELL UNIVERSITY, priority 2021, published 2024).
# Marks after values point to notes of the source that are not given here.
# Columns and labels:
# [1] = Body weight, cecum weight and cecum:body weight ratio; assay type: in vivo, Gallus gallus; settings: intra-amniotic 1 mL/egg on day 17; at hatch (day 21); mean ± SEM, n=8
# Protocol: (§1) The pure resveratrol and pterostilbene were individually diluted in 18 MΩ H2O. The intra-amniotic administration followed the methodology previously described. On the 17th day of embryonic development, the eggs with viable embryos (n=60) were randomly allocated into 6 groups (n=10) with a similar weight frequency distribution. For the intra-amniotic treatment, 1 mL of solution per egg was injected into the amniotic fluid (via candling) with the aid of a 21-gauge needle. After the procedure, the injection sites were sealed with cellophane tape, and the eggs were distributed into six groups: (1) no injection; (2) 18 MΩ H2O; (3) 5% inulin; (4) 5% resveratrol; (5) 5% pterostilbene; and (6) synergistic: 4.75% resveratrol and 0.25% pterostilbene. […] The eggs were equally distributed in each incubator location to reduce possible allocation bias. Upon hatching (21 days), the hatchlings were euthanized by CO2 exposure, and the blood, liver, heart, pectoral muscle, small intestine and cecum were obtained.
# [2] = Fe and Zn content in the serum and liver samples; assay type: in vivo, Gallus gallus
# Protocol: as §1
# The serum (50 μL) and liver (0.5 g) samples were mixed with 3.0 mL of a 60:40 (v/v) solution of nitric acid (HNO3) and perchloric acid (HClO4) and incubated overnight. After this, the samples were heated for 2 hours at 120° C. and added to 0.25 mL of 40 μg/g yttrium (internal standard), and the block temperature was increased to 145° C. for 2 h and then 190° C. for 10 min. At the end of these procedures, the samples were cooled, diluted to a total volume of 20 mL, mixed and transferred into autosampler tubes for analysis (inductively coupled plasma atomic emission spectrometer) (Thermo, Franklin, MA, USA).
# [3] = liver, intra-amniotic 1 mL/egg on day 17, at hatch, mean ± SEM, n=8
# [4] = serum, intra-amniotic 1 mL/egg on day 17, at hatch, mean ± SEM, n=8
smiles,measurement,setting,value
"Oc1ccc(C=Cc2cc(O)cc(O)c2)cc1 [5% Resveratrol, Resveratrol]",Body Weight Average (g),[1],47.1 ± 1.4^a g
same,Cecum Weight Average (g),[1],0.6 ± 0.0^a g
same,Cecum:Body Weight Ratio,[1],0.013 ± 0.001^a
same,Liver iron concentration vs inulin positive control,[2]; compared with the inulin positive control,similar
same,Liver Iron (μg/g),[2]; [3],46.45 ± 4.71 ^a μg/g
same,Liver Zinc (μg/g),[2]; [3],16.72 ± 1.58 ^b μg/g
same,Serum Iron (μg/g),[2]; [4],2.42 ± 0.23 ^b μg/g
same,Serum Zinc (μg/g),[2]; [4],0.97 ± 0.12 ^bc μg/g
